Measured values taken from US20260022246A1, “COLORING AGENT COMPOSITION, FILM, OPTICAL FILTER, AND NEAR INFRARED ABSORBING COMPOUND” (FUJIFILM Corporation, priority 2023, published 2026).

Key:
Assay type in all cases: physicochemical
[1] = Evaluation of absorption spectrum (maximal absorption wavelength in chloroform solution); conditions: for Near infrared absorbing property: grade of λmax in chloroform solution; for λmax (maximal absorption wavelength): chloroform solution, 3.0×10^−5 mol/L, 1 mm quartz cell
Method: The specific compound is diluted with chloroform to a concentration of […], and an absorbance of the obtained sample solution is measured with a spectrophotometer (UV-3600 Plus, manufactured by Shimadzu Corporation) using a 1 mm quartz cell. A maximal absorption wavelength (Amax) is measured from an absorption spectrum of the sample solution.
For each of Exemplary Compounds shown in Tables 1 and 2, a sample solution was prepared by diluting the compound with chloroform to a concentration of 3.0×10^−5 mol/L, and near infrared absorbability was evaluated.
For each sample solution, an absorbance was measured in a 1 mm quartz cell using a spectrophotometer (UV-3600 Plus, manufactured by Shimadzu Corporation).
A maximal absorption wavelength (Amax) was measured from the absorption spectrum of each sample solution. The results are shown in Tables 1 and 2, and the wavelength of Amax was evaluated according to the following standard.
• A: Amax was 1,150 nm or more. • B: Amax was less than 1,150 nm.

[2] = Evaluation of solubility in methyl ethyl ketone (MEK); design: key to Solubility in solvent: A: 1 g or more of the compound was stably dissolved in 300 g of MEK; B: 1 g was not dissolved in 300 g of MEK; X: decomposition was observed by measuring the absorption spectrum after the dissolution; conditions: for Solubility in solvent: stirred at room temperature for 30 minutes
Method: For each of Exemplary Compounds shown in Tables 1 and 2, a predetermined amount of the compound was added to a solvent of methyl ethyl ketone (MEK), and solubility was evaluated according to the following standard by stirring the mixture at room temperature for 30 minutes.
• A: 1 g or more of the compound was stably dissolved in 300 g of MEK. • B: 1 g was not dissolved in 300 g of MEK. • X: decomposition was observed by measuring the absorption spectrum after the dissolution.

[3] = Evaluation of heat stability of polystyrene resin film (hot plate 180° C., 5 minutes); design: key to Heat stability of resin composition: absorbance reduction rate of Amax was less than 5%; B: absorbance reduction rate of Amax was 5% or more and less than 10%; C: absorbance reduction rate of Amax was 10% or more and less than 50%; D: absorbance reduction rate of Amax was 50% or more; X: solubility was insufficient, so that the film cannot be produced, which was not evaluable; conditions: for Heat stability of resin composition: polystyrene resin film on glass, hot plate 180° C. for 5 minutes, absorbance reduction rate at λmax
Method: 30 mg of each of Exemplary Compounds and the comparative compounds described in the tables was dissolved in 8.9 g of methyl ethyl ketone and 1.1 g of a polystyrene resin (manufactured by Sigma-Aldrich Co. LLC) to prepare a resin composition.
The obtained resin composition was spin-coated on a glass substrate to form a coating film, and the obtained coating film was dried at 60° C. for 2 minutes to produce a resin film. […]
• A: absorbance reduction rate of Amax was less than 5%. • B: absorbance reduction rate of Amax was 5% or more and less than 10%. • C: absorbance reduction rate of Amax was 10% or more and less than 50%. • D: absorbance reduction rate of Amax was 50% or more. • X: solubility was insufficient, so that the film cannot be produced, which was not evaluable.

[4] = Evaluation of kneading: transmittance at 1,150 nm of melt-kneaded resin film; conditions: kneaded with resin under the thermal conditions
Method: A resin composition, which was a kneaded material of the specific compound or the comparative compound and a resin, was prepared, and the following kneading evaluation was performed.
The specific compounds and comparative compounds shown in Table 3 below were weighed in the contents shown in Table 3, and a sample obtained by shaking and mixing 12.0 g of the resin shown in Table 3 was prepared. A polycarbonate resin (indicated as Polycarbonate in Table 3), a polystyrene resin, and an acrylic resin were used as the resin. In Table 3, the polycarbonate resin is indicated as Polycarbonate, the polystyrene resin is indicated as Polystyrene, and the acrylic resin is indicated as Acrylic.
The obtained sample was put into a supply port of a biaxial kneader (Labo Plastomill, manufactured by Toyo Seiki Seisaku-sho, Ltd.) and subjected to melt-kneading to obtain a resin composition as a kneaded material. The obtained resin composition was pressed using a heat press machine to obtain a resin film having a thickness of 0.15 mm.
In a case where a polycarbonate resin (SD PORYCA (registered trademark) 301-10, manufactured by Sumika Polycarbonate Co., Ltd.) was used as the resin, the melt-kneading temperature was set to 260° C. and the hot press temperature was set to 230° C.
In a case where a polystyrene resin (manufactured by Sigma-Aldrich Co. LLC) was used as the resin, the melt-kneading temperature was set to 200° C. and the hot press temperature was set to 180° C.
In a case where an acrylic resin (G1000, manufactured by Kuraray Co., Ltd.) was used as the resin, the melt-kneading temperature was set to 180° C. and the hot press temperature was set to 160° C.
A transmittance of the obtained resin film at a wavelength of 1,150 nm was measured with a spectrophotometer, and the measured value was evaluated according to the following standard. In Table 3, it is described in “Evaluation of transmittance at wavelength of 1150 nm”. As the transmittance is lower, the near infrared blocking property is better. […]

**Q.** With `Cc1ccc(N(c2ccc(C)cc2)c2ccc([N+](=C3C=CC(=[N+](c4ccc(N(c5ccc(C)cc5)c5ccc(C)cc5)cc4)c4ccc(N(c5ccc(C)cc5)c5ccc(C)cc5)cc4)C=C3)c3ccc(N(c4ccc(C)cc4)c4ccc(C)cc4)cc3)cc2)cc1` [A-35] as the compound, how does the “Near infrared absorbing property” value [1] read?
**A.** A (Amax was 1,150 nm or more)

**Q.** What about the Solubility in solvent [2] of the same compound?
**A.** A (1 g or more of the compound was stably dissolved in 300 g of MEK)

**Q.** What about the “Heat stability of resin composition” value [3] of the same compound?
**A.** A (absorbance reduction rate of Amax was less than 5%)

**Q.** Which results are given for `Cc1ccc(N(c2ccc(C)cc2)c2ccc([N+](=C3C=CC(=[N+](c4ccc(N(c5ccc(C)cc5)c5ccc(C)cc5)cc4)c4ccc(N(c5ccc(C)cc5)c5ccc(C)cc5)cc4)C=C3)c3ccc(N(c4ccc(C)cc4)c4ccc(C)cc4)cc3)cc2)cc1.c1ccc([B-](c2ccccc2)(c2ccccc2)c2ccccc2)cc1.c1ccc([B-](c2ccccc2)(c2ccccc2)c2ccccc2)cc1` [A-36]?
**A.** λmax (maximal absorption wavelength) [1]: 1215 nm; Near infrared absorbing property [1]: A (Amax was 1,150 nm or more); Solubility in solvent [2]: A (1 g or more of the compound was stably dissolved in 300 g of MEK); Heat stability of resin composition [3]: A (absorbance reduction rate of Amax was less than 5%)

**Q.** Which results are given for `C1=CC(=[N+](c2ccc(N(c3ccccc3)c3ccccc3)cc2)c2ccc(N(c3ccccc3)c3ccccc3)cc2)C=CC1=[N+](c1ccc(N(c2ccccc2)c2ccccc2)cc1)c1ccc(N(c2ccccc2)c2ccccc2)cc1` [Comparative compound 1, reference compound]?
**A.** λmax (maximal absorption wavelength) [1]: 1230 nm; Near infrared absorbing property [1]: A (Amax was 1,150 nm or more); solubility in a solvent (in words) [2]: inferior; Solubility in solvent [2]: B (1 g was not dissolved in 300 g of MEK); Heat stability of resin composition [3]: X

**Q.** Which “λmax (maximal absorption wavelength)” value [1] does the source give for `Cc1ccc(N(c2ccc(C)cc2)c2ccc([N+](=C3C=CC(=[N+](c4ccc(N(c5ccc(C)cc5)c5ccc(C)cc5)cc4)c4ccc(N(c5ccc(C)cc5)c5ccc(C)cc5)cc4)C=C3)c3ccc(N(c4ccc(C)cc4)c4ccc(C)cc4)cc3)cc2)cc1` [Comparative compound 2, reference compound] here?
**A.** 1250 nm

**Q.** What about the “Near infrared absorbing property” value [1] of the same compound?
**A.** A (Amax was 1,150 nm or more)

**Q.** And the “stability after dissolving in a solvent (measurement of the absorption spectrum)” value [2]?
**A.** decomposed

**Q.** What about the Solubility in solvent [2] of the same compound?
**A.** X

**Q.** What about the “Heat stability of resin composition” value [3] of the same compound?
**A.** D (absorbance reduction rate of Amax was 50% or more)

**Q.** What about the “heat stability (in words, kneading evaluation)” value [4] of the same compound?
**A.** low

**Q.** Which “λmax (maximal absorption wavelength)” value [1] does the source give for `CCCCN(CCCC)c1ccc(N(c2ccc(N(CCCC)CCCC)cc2)c2ccc([N+](=C3C=CC(=[N+](c4ccc(N(c5ccc(N(CCCC)CCCC)cc5)c5ccc(N(CCCC)CCCC)cc5)cc4)c4ccc(N(c5ccc(N(CCCC)CCCC)cc5)c5ccc(N(CCCC)CCCC)cc5)cc4)C=C3)c3ccc(N(c4ccc(N(CCCC)CCCC)cc4)c4ccc(N(CCCC)CCCC)cc4)cc3)cc2)cc1.[F][Sb-]([F])([F])([F])([F])[F].[F][Sb-]([F])([F])([F])([F])[F]` [Comparative compound 3, reference compound] here?
**A.** 1051 nm

**Q.** And the “Near infrared absorbing property” value [1]?
**A.** B (Amax was less than 1,150 nm)

**Q.** What about the “stability after dissolving in a solvent (measurement of the absorption spectrum)” value [2] of the same compound?
**A.** decomposed

**Q.** And the Solubility in solvent [2]?
**A.** X

**Q.** And the “Heat stability of resin composition” value [3]?
**A.** D (absorbance reduction rate of Amax was 50% or more)

**Q.** What about the “heat stability (in words, kneading evaluation)” value [4] of the same compound?
**A.** low

**Q.** What does the source list for `CCCCN(CCCC)c1ccc([N+](=C2C=CC(=[N+](c3ccc(N(CCCC)CCCC)cc3)c3ccc(N(CCCC)CCCC)cc3)C=C2)c2ccc(N(CCCC)CCCC)cc2)cc1.[F][Sb-]([F])([F])([F])([F])[F].[F][Sb-]([F])([F])([F])([F])[F]` [Comparative compound 4, reference compound]?
**A.** λmax (maximal absorption wavelength) [1]: 1100 nm; Near infrared absorbing property [1]: B (Amax was less than 1,150 nm); solubility in a solvent (in words) [2]: favorable; Solubility in solvent [2]: A (1 g or more of the compound was stably dissolved in 300 g of MEK); heat stability of the resin composition (in words) ([3]; polystyrene resin film): low; Heat stability of resin composition [3]: D (absorbance reduction rate of Amax was 50% or more); absorbance at the maximal absorption wavelength on heating ([3]; resin film, heating at 130° C. as printed): significantly reduced; heat stability (in words, kneading evaluation) [4]: low
